Results: patent US7056954B2, “Means for the modulation of processes mediated by retinoid receptors and compounds useful therefor” (The Salk Institute for Biological Studies, priority 1991, dated 2006)
Read-outs that look alike come from different tables or passages of the source.

Key:
RAR-β = molecular target: T1, RAR-β (Homo sapiens, UniProt P10826); test: Cotransfection assay in CV-1 cells, RAR-beta; type: cell-based
T1 construct: expressed in transfected cells; host or cells: CV-1 (monkey kidney)
T1 sequence (P10826 1-448 isoform P10826-2): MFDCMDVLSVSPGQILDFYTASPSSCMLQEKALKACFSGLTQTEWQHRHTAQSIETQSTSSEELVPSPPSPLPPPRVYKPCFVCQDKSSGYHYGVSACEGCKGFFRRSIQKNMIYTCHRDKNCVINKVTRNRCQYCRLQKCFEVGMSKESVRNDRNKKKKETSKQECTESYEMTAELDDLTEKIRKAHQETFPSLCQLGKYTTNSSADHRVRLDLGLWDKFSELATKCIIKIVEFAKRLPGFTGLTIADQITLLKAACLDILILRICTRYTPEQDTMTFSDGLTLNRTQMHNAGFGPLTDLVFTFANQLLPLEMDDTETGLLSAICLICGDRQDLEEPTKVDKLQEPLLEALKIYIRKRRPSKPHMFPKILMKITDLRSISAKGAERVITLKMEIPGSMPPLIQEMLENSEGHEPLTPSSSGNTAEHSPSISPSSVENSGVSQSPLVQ

RAR-γ = molecular target: T2, RAR-γ (Homo sapiens, UniProt P13631); test: Cotransfection assay in CV-1 cells, RAR-gamma; type: cell-based
T2 construct: expressed in transfected cells; host or cells: CV-1 (monkey kidney)
T2 sequence (P13631 1-454): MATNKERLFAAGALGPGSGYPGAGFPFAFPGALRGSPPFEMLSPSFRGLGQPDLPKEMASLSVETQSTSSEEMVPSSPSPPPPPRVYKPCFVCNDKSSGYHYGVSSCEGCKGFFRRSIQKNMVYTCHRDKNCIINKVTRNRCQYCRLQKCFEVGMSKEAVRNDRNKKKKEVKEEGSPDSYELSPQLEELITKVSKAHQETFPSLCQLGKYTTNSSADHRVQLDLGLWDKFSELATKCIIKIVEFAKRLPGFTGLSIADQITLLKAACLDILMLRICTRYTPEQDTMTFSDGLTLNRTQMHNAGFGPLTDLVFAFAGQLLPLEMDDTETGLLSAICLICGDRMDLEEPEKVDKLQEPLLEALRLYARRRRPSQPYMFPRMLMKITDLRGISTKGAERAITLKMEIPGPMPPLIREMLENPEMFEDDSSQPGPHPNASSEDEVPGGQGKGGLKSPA

RXR-α = molecular target: T3, RXR-α (Homo sapiens, UniProt P19793); test: Cotransfection assay in CV-1 cells, RXR-alpha; type: cell-based; conditions: Table 4; for EC50: read-out: Potency
T3 construct: expressed in transfected cells; host or cells: CV-1 (monkey kidney)
T3 sequence (P19793 1-462): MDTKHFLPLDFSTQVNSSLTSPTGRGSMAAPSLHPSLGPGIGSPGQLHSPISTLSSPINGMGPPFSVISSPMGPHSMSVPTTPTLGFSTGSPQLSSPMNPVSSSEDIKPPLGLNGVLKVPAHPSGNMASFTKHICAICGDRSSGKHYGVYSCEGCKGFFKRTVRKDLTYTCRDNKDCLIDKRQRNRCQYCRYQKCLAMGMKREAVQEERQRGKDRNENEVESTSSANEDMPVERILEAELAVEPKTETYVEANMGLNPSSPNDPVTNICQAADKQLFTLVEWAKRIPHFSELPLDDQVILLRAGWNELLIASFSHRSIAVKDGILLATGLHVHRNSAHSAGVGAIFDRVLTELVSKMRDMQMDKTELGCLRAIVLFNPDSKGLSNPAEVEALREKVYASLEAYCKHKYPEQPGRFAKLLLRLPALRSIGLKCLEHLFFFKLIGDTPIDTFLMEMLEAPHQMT

RXR-β = molecular target: T4, RXR-β (Mus musculus, UniProt P28704); test: Cotransfection assay in CV-1 cells, RXR-beta; type: cell-based; conditions: Table 4; read-out: Potency
T4 construct: expressed in transfected cells; host or cells: CV-1 (monkey kidney)
T4 sequence (P28704 1-520): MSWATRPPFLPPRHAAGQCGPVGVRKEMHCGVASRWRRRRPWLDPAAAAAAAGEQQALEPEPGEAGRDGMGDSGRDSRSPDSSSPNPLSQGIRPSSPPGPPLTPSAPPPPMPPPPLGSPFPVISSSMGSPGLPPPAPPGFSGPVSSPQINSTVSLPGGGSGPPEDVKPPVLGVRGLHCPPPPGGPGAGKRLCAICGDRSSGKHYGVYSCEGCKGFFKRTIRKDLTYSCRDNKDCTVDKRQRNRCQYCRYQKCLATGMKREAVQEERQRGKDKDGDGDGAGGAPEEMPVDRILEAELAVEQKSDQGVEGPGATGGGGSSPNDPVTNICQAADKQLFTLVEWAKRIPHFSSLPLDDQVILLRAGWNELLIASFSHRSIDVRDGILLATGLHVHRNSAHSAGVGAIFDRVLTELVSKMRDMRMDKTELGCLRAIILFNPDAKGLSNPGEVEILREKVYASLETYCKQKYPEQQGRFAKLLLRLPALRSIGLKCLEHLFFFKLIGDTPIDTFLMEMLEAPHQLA

RXR-γ = molecular target: T5, RXR-γ (Mus musculus, UniProt P28705); test: Cotransfection assay in CV-1 cells, RXR-gamma; type: cell-based; conditions: Table 4; read-out: Potency
T5 construct: expressed in transfected cells; host or cells: CV-1 (monkey kidney)
T5 sequence (P28705 1-463): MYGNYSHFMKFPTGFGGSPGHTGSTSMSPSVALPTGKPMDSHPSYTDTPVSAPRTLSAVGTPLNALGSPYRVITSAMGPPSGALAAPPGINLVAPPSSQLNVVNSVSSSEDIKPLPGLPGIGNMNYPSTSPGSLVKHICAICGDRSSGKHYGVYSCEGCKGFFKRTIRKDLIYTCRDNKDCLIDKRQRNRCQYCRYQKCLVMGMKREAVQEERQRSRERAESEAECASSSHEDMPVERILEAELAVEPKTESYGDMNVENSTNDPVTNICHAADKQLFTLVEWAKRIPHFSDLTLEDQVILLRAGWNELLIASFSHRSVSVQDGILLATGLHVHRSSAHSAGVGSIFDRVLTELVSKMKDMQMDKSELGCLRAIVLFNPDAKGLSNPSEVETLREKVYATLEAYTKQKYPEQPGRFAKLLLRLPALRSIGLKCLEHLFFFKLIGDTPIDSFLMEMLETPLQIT

RAR-α [1] = molecular target: T6, RAR-α (Homo sapiens, UniProt P10276); test: Cotransfection assay in CV-1 cells, RAR-alpha; type: cell-based; design: expressed in transfected cells; host or cells: CV-1 (monkey kidney); conditions: for EC50: Table 4
T6 sequence (P10276 1-462): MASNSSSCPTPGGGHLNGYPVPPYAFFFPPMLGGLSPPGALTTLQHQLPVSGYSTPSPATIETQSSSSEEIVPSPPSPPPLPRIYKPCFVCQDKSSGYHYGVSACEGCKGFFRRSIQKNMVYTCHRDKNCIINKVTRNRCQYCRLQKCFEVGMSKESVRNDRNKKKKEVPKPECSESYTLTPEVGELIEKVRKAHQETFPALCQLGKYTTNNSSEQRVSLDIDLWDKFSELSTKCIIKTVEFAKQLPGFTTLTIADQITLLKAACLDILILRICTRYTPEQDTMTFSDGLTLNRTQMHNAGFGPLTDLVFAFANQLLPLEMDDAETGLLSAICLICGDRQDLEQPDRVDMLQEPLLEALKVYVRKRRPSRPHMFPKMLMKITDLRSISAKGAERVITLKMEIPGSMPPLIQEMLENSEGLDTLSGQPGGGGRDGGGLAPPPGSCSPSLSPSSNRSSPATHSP

[2] = test system: human primary metastatic melanoma cell line c81–46c; test: In vitro proliferation of human melanoma cell line c81–46c; type: cell-based
F9 cells [3] = test: F9 cell differentiation, cellular morphology; type: cell-based, mouse
Description: Retinoids are known to differentiate mouse teratocarcinoma cells (F9). Differentiation of F9 cells is specifically associated with irreversible changes in morphology and induction of the biochemical marker alkaline phosphatase (ALP) and tissue plasminogen activator (tPA) (Biochem. J. Vol. 274:673–678).

RAR-α [4] = molecular target: T6, RAR-α; test: Binding studies, RAR-alpha; design: made in house; host or cells: bacteria (PET-8c vector)
[5] = test system: murine melanoma cell line Clone M3; test: In vitro proliferation of murine melanoma cell line Clone M3
Rhino mouse = test: Topical application, horn-filled utriculus size in the Rhino mouse; type: in vivo; conditions: 14 days
F9 cells [6] = test: F9 cell differentiation, induction of alkaline phosphatase; type: cell-based, mouse; conditions: maximal responses similar
F9 cells [7] = test: F9 cell differentiation, tissue plasminogen activator activity; type: cell-based, mouse; conditions: concentration of 1 μM

Question: How did the EC50 (RAR-β; Table 4, read-out: Potency) turn out when CC1=C(/C=C/C(=C\C=C\C(C)=C\C(=O)O)c2ccccc2)C(C)(C)CCC1 [9-phenyl-9-cis-retinoic acid] was run?
Answer: 880 nM

Question: And the EC50 (RAR-γ; Table 4, read-out: Potency)?
Answer: 250 nM

Question: What about the EC50 (RXR-α) of the same compound?
Answer: 210 nM

Question: And the EC50 (RXR-β)?
Answer: 44 nM

Question: What about the EC50 (RXR-γ) of the same compound?
Answer: 290 nM

Question: And the EC50 (RAR-α [1]; read-out: Potency)?
Answer: > 10000 nM

Question: CC1=C(/C=C/C(C)=C\C=C\C(C)=C\C(=O)O)C(C)(C)CCC1=O [4-keto-9-cis-retinoic acid] was tested. Which EC50 (RXR-α) did it give?
Answer: 520 nM

Question: And the EC50 (RXR-β)?
Answer: 1300 nM

Question: And the EC50 (RXR-γ)?
Answer: 1100 nM

Question: What does the source list for CC1=C(/C=C/C(C)=C\C=C\C(C)=C\C(=O)O)C(C)(C)CCC1 [9-cis-retinoic acid]?
Answer: % Growth inhibition ([2]; Conc added 0.01 μM): −28%; % Growth inhibition ([2]; Conc added 1 μM): −45%; differentiation of F9 cells, irreversible changes in cellular morphology (F9 cells [3]): induced differentiation of F9 cells into partial endoderm-like cells; binding to RAR-alpha (RAR-α [4]): high affinity ligand; % Growth inhibition ([5]; Conc added 0.01 μM): −49%; % Growth inhibition ([5]; Conc added 1 μM): −85%; potency as an activator of RAR-alpha compared with all-trans-retinoic acid (RAR-α [1]; FIG. 3C): equipotent

Question: What does the source list for CC1=C(/C=C/C(C)=C/C=C/C(C)=C/C(=O)O)C(C)(C)CCC1 [all-trans-retinoic acid]?
Answer: Pilosebaceous structure size (% red′n) (Rhino mouse; 0.01% topical): (−75%); Pilosebaceous structure size (% red′n) (Rhino mouse; 0.1% topical): (−78%); Pilosebaceous structure size (Rhino mouse; 0.1% topical, vehicle control 178 μm): 44 μm; times more potent than 9-cis-retinoic acid in inducing ALP (F9 cells [6]): 40 times; increased cellular activities of tPA (F9 cells [7]): 0.80±0.08; differentiation of F9 cells, irreversible changes in cellular morphology (F9 cells [3]): induced differentiation of F9 cells into partial endoderm-like cells

Question: For CC1=C(/C=C/C(C)=C\C=C\C(C)=C\C(=O)O)C(C)(C)CCC1O (stereo not drawn) [4-hydroxy-9-cis-retinoic acid], which EC50 (RAR-β) is on record?
Answer: 160 nM

Question: And the Efficacy (RAR-β)?
Answer: 71%

Question: What about the EC50 (RAR-γ) of the same compound?
Answer: 180 nM

Question: What about the Efficacy (RAR-γ) of the same compound?
Answer: 81%

Question: What about the Efficacy (RXR-α; maximal response relative to retinoic acid at 10^−5 M) of the same compound?
Answer: 161%

Question: And the EC50 (RXR-α)?
Answer: 1700 nM

Question: What about the EC50 (RXR-β) of the same compound?
Answer: 650 nM

Question: What about the EC50 (RXR-γ) of the same compound?
Answer: 1700 nM

Question: And the EC50 (RAR-α [1]; Potency)?
Answer: 380 nM
